Measurements as given in patent US20120270237A9, “METHODS FOR THE IDENTIFICATION OF KINASE INTERACTING MOLECULES AND FOR THE PURIFICATION OF KINASE PROTEINS” (Cellzone AG, priority 2009, published 2012).

Legend:
Experiment in all cases: Kinobeads competition binding, L-363 cell lysate
Design in all cases: endogenous in cells
Conditions in all cases: 10 μM free compound, L-363 lysate
GSK3B = GSK3B (Homo sapiens, UniProt P49841)
Summary of the method: (§1)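 MG132-pretreated (20 μM, 3 h) L-363 lysate; 10 μM cpd vs DMSO; immobilized-cpd bead capture; SDS-PAGE, tryptic digest, iTRAQ 114/117; LC-MS/MS reporter quant.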

Erk1 = Erk1 (Homo sapiens, UniProt P27361)
Summary of the method: as §1

GAK = target: T1, GAK (Homo sapiens, UniProt O14976)
T1 sequence (O14976 1-1311): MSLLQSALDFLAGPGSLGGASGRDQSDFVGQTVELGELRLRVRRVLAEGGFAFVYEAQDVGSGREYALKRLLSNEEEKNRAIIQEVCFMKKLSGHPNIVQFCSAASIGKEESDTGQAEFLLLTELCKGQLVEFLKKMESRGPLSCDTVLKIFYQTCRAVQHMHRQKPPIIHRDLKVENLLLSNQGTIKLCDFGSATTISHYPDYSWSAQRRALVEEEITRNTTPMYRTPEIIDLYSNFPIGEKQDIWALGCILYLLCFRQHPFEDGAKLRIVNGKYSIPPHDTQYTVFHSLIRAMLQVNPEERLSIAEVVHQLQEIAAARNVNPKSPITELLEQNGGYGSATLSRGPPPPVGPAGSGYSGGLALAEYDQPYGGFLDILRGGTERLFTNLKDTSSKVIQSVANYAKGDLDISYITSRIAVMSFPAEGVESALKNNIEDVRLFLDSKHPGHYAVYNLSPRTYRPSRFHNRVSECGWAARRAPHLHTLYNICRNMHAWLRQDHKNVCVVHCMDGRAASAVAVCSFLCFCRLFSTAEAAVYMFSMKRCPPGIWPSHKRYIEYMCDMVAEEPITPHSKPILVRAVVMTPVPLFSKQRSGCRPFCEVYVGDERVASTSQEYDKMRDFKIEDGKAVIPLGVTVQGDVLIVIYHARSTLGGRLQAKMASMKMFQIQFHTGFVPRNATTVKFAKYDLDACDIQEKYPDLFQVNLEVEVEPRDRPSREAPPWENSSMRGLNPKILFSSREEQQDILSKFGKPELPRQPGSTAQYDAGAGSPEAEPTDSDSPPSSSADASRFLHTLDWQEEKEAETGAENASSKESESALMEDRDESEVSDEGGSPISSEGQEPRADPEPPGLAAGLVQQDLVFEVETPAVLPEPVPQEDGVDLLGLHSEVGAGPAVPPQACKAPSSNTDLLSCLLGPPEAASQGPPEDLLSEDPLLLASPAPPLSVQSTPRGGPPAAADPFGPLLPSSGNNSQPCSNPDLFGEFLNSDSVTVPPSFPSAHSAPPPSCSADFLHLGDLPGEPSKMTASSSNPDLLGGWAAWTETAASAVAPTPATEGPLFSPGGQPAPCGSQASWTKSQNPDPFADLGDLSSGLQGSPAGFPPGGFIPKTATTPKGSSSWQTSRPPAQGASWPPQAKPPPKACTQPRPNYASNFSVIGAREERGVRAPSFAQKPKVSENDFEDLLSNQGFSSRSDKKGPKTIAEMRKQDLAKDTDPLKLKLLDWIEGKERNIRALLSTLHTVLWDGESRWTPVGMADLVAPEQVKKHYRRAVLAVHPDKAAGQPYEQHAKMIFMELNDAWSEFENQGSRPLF
Summary of the method: as §1

IRAK1 = IRAK1 (Homo sapiens, UniProt P51617)
Summary of the method: as §1

MYT1 = MYT1 (Homo sapiens, UniProt Q99640)
Summary of the method: as §1

AMPKa1 = AMPKa1 (Homo sapiens, UniProt Q13131)
Summary of the method: as §1

MAP2K3 = MAP2K3 (Homo sapiens, UniProt P46734)
Summary of the method: as §1

PHKg2 = target: T2, PHKg2 (Homo sapiens, UniProt P15735)
T2 sequence (P15735 1-406): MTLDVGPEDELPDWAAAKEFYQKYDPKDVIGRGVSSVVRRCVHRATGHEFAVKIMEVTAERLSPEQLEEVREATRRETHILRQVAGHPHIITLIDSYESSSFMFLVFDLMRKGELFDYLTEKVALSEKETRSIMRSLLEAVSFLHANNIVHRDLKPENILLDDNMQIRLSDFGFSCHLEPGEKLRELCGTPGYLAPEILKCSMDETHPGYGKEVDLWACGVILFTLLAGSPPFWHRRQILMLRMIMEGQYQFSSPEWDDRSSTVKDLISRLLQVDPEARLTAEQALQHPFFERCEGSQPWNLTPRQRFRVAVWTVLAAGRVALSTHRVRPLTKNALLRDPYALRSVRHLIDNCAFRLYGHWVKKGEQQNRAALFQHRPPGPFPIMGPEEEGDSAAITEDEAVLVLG
Summary of the method: as §1

BIKE = BIKE (Homo sapiens, UniProt Q9NSY1)
Summary of the method: as §1

Sequence of IRAK1 (P51617 whole entry): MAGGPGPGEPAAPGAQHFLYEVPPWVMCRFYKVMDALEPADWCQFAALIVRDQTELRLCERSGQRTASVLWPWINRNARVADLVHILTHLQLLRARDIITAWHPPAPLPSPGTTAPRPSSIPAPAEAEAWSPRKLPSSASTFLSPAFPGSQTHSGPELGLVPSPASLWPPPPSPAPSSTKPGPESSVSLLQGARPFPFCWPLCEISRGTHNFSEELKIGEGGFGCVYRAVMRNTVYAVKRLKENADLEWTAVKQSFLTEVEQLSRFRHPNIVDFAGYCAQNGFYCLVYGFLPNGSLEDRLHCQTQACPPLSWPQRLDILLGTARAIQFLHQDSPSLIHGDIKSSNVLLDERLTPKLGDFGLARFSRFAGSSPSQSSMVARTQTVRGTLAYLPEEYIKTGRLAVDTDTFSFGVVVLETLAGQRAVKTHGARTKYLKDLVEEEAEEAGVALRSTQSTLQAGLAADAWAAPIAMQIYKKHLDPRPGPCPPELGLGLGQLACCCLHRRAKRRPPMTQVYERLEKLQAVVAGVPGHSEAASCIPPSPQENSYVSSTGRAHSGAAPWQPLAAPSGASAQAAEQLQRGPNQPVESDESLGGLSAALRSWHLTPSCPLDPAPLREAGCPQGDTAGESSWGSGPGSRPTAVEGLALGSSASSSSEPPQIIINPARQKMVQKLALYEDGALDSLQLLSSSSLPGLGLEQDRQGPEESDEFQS
Sequence of MYT1 (Q99640 whole entry): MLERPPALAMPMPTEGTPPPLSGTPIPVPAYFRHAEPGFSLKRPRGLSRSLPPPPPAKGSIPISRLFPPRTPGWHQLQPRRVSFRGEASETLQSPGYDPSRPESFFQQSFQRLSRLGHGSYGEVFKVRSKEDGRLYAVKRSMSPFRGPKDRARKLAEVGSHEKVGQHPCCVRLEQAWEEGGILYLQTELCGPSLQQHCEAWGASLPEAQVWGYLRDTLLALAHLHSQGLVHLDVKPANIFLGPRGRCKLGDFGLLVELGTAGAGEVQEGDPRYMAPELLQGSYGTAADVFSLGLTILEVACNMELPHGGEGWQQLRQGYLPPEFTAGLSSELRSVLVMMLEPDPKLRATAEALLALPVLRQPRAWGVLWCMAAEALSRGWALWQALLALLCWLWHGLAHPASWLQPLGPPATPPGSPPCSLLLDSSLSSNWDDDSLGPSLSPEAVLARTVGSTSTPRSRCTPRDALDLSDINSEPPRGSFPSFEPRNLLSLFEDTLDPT
Sequence of GSK3B (P49841 whole entry): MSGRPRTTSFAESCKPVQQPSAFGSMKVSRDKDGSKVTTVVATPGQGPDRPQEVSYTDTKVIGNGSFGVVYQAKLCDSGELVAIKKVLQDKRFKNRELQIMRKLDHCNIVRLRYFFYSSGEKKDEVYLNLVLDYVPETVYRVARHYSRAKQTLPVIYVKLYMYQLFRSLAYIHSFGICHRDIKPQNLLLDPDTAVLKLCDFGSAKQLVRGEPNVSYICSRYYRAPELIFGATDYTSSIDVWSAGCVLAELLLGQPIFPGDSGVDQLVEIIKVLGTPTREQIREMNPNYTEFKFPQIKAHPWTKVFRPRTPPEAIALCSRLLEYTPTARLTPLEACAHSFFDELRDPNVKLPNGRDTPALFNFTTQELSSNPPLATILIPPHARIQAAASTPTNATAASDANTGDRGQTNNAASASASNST
Sequence of BIKE (Q9NSY1 whole entry): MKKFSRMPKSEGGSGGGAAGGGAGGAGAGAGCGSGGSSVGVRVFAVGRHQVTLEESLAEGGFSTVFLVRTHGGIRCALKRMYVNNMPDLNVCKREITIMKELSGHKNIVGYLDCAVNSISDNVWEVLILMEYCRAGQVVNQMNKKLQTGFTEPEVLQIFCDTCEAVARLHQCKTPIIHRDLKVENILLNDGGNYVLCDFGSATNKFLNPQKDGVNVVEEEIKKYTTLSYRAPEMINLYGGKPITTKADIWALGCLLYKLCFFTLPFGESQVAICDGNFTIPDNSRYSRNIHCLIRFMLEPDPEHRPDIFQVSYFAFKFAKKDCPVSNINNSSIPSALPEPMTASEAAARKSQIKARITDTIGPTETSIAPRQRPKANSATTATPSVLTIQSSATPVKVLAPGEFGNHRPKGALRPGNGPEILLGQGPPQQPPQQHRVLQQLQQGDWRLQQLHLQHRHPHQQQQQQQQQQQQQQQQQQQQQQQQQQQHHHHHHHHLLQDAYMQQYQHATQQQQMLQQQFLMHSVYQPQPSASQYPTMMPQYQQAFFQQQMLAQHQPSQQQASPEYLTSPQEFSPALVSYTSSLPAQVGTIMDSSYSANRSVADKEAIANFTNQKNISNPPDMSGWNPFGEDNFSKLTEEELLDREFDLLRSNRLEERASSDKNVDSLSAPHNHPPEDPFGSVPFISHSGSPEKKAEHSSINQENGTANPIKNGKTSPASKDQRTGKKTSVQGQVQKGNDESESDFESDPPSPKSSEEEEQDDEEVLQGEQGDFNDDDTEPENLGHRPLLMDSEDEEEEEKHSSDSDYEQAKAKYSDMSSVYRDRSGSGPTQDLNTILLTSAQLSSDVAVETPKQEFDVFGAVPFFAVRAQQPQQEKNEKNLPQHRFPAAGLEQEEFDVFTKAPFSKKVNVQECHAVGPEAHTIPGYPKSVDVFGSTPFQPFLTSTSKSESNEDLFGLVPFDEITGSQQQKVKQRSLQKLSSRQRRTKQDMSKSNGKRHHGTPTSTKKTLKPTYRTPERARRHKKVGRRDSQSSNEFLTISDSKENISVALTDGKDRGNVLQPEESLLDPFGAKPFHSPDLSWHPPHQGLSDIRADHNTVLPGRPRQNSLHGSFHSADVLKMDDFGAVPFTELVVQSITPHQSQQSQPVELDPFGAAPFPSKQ
Sequence of MAP2K3 (P46734 whole entry): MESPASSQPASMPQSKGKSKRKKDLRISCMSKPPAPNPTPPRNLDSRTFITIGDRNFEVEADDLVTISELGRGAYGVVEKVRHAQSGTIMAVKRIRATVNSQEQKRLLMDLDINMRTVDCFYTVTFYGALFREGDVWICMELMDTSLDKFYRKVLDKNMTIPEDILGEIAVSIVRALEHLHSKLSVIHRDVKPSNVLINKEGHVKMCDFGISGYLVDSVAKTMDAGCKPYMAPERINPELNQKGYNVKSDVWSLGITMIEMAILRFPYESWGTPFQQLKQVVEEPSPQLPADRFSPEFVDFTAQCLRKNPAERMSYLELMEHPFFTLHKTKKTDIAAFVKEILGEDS
Sequence of Erk1 (P27361 whole entry): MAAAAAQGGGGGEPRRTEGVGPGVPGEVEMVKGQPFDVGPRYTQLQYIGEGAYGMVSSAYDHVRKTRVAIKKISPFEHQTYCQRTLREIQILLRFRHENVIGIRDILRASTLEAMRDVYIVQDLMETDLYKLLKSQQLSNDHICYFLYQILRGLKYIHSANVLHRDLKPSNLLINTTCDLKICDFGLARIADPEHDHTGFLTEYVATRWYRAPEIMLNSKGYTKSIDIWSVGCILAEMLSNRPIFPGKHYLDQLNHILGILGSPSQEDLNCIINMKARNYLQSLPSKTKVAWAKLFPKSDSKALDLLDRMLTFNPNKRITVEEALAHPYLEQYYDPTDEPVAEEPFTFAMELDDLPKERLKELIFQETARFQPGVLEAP
Sequence of AMPKa1 (Q13131 whole entry): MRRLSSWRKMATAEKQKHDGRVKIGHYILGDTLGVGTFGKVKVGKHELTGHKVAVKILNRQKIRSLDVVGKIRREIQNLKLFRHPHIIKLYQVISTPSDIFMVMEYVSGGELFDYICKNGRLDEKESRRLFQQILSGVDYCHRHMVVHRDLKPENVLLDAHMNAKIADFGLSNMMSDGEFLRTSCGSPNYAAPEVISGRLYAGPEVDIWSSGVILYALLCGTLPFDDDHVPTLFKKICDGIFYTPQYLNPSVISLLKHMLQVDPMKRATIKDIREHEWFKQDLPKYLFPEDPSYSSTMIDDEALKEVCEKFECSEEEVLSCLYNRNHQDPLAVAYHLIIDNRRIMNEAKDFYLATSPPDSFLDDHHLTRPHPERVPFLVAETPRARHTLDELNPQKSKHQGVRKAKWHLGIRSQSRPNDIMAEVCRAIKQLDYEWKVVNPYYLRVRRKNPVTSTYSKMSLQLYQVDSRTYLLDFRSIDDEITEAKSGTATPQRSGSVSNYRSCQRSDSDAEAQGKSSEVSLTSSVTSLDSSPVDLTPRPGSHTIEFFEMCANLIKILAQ
Sequence of AMPKa1 (Q9Y478 2-270 partner limits assumed): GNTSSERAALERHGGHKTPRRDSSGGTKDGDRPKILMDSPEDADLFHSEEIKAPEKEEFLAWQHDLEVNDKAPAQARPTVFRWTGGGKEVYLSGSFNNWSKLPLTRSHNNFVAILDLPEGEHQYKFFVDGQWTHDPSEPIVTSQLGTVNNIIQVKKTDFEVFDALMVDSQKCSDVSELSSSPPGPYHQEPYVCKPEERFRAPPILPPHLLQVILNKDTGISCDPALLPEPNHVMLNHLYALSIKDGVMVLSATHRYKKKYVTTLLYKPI
Sequence of AMPKa1 (P54619 whole entry partner): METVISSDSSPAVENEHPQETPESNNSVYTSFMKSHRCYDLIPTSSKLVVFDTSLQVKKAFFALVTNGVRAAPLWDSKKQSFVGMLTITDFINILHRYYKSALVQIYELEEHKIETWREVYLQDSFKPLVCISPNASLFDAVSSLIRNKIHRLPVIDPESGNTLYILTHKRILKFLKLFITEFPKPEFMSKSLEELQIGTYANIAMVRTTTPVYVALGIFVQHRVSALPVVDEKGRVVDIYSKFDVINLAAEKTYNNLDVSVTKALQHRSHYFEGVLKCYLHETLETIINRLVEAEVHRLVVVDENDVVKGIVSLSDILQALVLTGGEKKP

CS(=O)(=O)Nc1ccccc1Nc1nc(Nc2cccc(OCCN)c2)ncc1Cl [CZC31326, N-(2-(2-(3-(2-aminoethoxy)phenylamino)-5-chloropyrimidin-4-ylamino)phenyl)methanesulfonamide]
inhibition at 10 µM (GSK3B): 94.6%
inhibition at 10 µM (Erk1): 83.2%
inhibition at 10 µM (GAK): 98.2%
inhibition at 10 µM (IRAK1): 95.1%
Competition % (MYT1): 93.1%
inhibition at 10 µM (AMPKa1): 97.7%
inhibition at 10 µM (MAP2K3): 93.9%
inhibition at 10 µM (PHKg2): 94.1%
inhibition at 10 µM (BIKE): 97%
